In article PMC11666850, “Development and evaluation of deuterated [^18F]JHU94620 isotopologues for the non-invasive assessment of the cannabinoid type 2 receptor in brain” (EJNMMI Radiopharmacy and Chemistry, 2024):

Assays:
CB2R [1] = experiment: Quantitative autoradiography, pig spleen cryosections; assay type: binding; conditions: blocking with 10 µM GW405833 or self-blocking
Procedure: (§1) For quantitative autoradiography in different species, 10 µm cryosections from mouse, rat and piglet spleen were thawed, dried, and pre-incubated with incubation buffer for 10 min, dried under an airstream. Subsequently, the incubation buffer containing [^18F]JHU94620-d8 (59–137 GBq µmol^−1, 1.7–3.6 nM) was added alone or together with indicated concentrations of the reference compound. Additionally, to assess the non-specific binding of [^18F]JHU94620-d8 to cryosections GW405833 was added instead of the reference compound. After 90 min, cryosections were washed two times for 2 min with ice-cold 50 mM Tris HCl, pH7.4 and 10 s in ddH2O and subsequently dried under an airstream. For the calculation of the radioactivity concentration, 5 µl of five serial 1:2 dilutions of the incubation buffer with [^18F]JHU94620-d8 were air-dried on a microscopic slide. For binding studies in rat spleen cryosections by autoradiography with HLM-derived radiometabolites of [^18F]JHU94620-d8 obtained from the radiometabolite assay, the samples were added to the incubation buffer to a final activity concentration of 0.2 MBq mL^−1 and protocol was followed as described above. Subsequently, the slides were exposed to a phosphor imager plate. After scanning at high sensitivity and a 12.5 µm resolution with a CR35 Bio image plate scanner (Raytest Isotopenmessgeräte GmbH, Straubenhardt, Germany). […]

[2] = assay type: in vitro ADME; conditions: Wistar, rat
Procedure: From the wildtype rats used for in vivo metabolism studies a hematocrit content of 0.56 ± 0.04 (n = 11) was determined by a 5 min centrifugation of 50 µl blood in a hematocrit centrifuge at 500 g. The free plasma fraction (fp) of [^18F]JHU94620-d8 was determined gravimetrically by ultrafiltration of 100 µl rat plasma samples incubated for 5, 15, 30 and 60 min at 37 °C for 20 min at 14,000 g utilizing Nanosep® centrifugal filters (10 kDa, Pall Laboratory, USA). The brain PET images were co-registered to the PMOD integrated Px Rat (W. Schiffer) T2 MR template and the brain stem, cerebellum, left cortex and left midbrain region from the corresponding brain atlas were used for the determination of the regional TACs. Due to high spillover signals from the hCB2R(D80N) expressing region not all provided atlas regions could be evaluated. Subsequently, the total tissue distribution (VT) was estimated by 2-tissue compartment modelling. For correction of the TACs, an averaged image-derived input function (pIDIF, plasma-to-whole blood ratio corrected), determined in biodistribution studies and the parent fraction derived from metabolism studies in Wistar rats (Watabe fit) and pIDIF (3-exponential fit) were integrated into the modelling process. The binding potential was estimated by a simplified reference tissue modelling (SRTM) using the cerebellar region as reference. […]

hCB2R(D80N) = hCB2R(D80N) (Homo sapiens, UniProt P34972, D80N); conditions: female, Wistar, rat, in vivo
Procedure: The dynamic biodistribution of the radiotracer in the lower body of rats was assessed by small animal PET (Nanoscan, Mediso, Hungary) over 60 min with a subsequently T1-weighted MR. Anaesthetized (2% isoflurane, carrier gas mixture of 40% air and 60% O2) male Wistar rats (body weight: 205–308 g, age: 8–10 weeks, no gender-specific differences were taken into account) were kept during imaging on a heated animal bed to sustain body temperature and were pretreated with vehicle (DMSO:Kolliphore EL:0.9% saline, 1:2:7), JHU94620-d8 (1.5 mg kg^−1 bodyweight) or with GW405833 (5 mg kg^−1 bodyweight) 5 min prior tracer application ([^18F]JHU94620-d8: 7.7–28.2 MBq, 0.4 to 3.2 nmol kg^−1 bodyweight), whereby all injections were administered intravenously. For the evaluation of the hCB2R-specific binding of the radiotracer in the brain, female Wistar rats (n = 6, 253–269 g, age: 8 month) were used carrying stereotactically injected constructs of AAV2/7-CaMKII0.4-intron-hCB2R(D80N) in the right striatum and AAV2/7-CaMKII0.4-intron-3flag-eGFP in the control/contralateral striatum (Vandeputte et al. [2011]). 21–26 MBq corresponding to 0.2 to 2.0 nmol kg^−1 bodyweight radiotracer were injected, whereas in displacement studies 5 mg kg^−1 bodyweight GW405833 was administered 20 min after the radiotracer (each n = 3). The PET scans were performed six months after the stereotactic injections of the AAV2/7-constructs.
The acquisitions were performed in normal mode and a coincidence mode 1–5. For subsequent dynamic reconstructions list mode data were sorted into sinograms (12 × 10 s, 6 × 30 s, 5 × 60 s and 10 × 300 s). The frames were reconstructed by Ordered Subset Expectation Maximization applied to 3D (OSEM3D) sinograms corrected for decay and attenuation (4 iterations, 6 subsets and a voxel size of 0.4 mm^3) with the Nucline software v2.01 (Mediso, Budapest, Hungary). Analyses of reconstructed studies were performed with PMOD software (v4.205, PMOD Technologies LLC, Fällanden, Switzerland) and results are expressed in standardized uptake values (SUVs) or normalized to a reference region (SUVr).
From the wildtype rats used for in vivo metabolism studies a hematocrit content of 0.56 ± 0.04 (n = 11) was determined by a 5 min centrifugation of 50 µl blood in a hematocrit centrifuge at 500 g. The free plasma fraction (fp) of [^18F]JHU94620-d8 was determined gravimetrically by ultrafiltration of 100 µl rat plasma samples incubated for 5, 15, 30 and 60 min at 37 °C for 20 min at 14,000 g utilizing Nanosep® centrifugal filters (10 kDa, Pall Laboratory, USA). The brain PET images were co-registered to the PMOD integrated Px Rat (W. Schiffer) T2 MR template and the brain stem, cerebellum, left cortex and left midbrain region from the corresponding brain atlas were used for the determination of the regional TACs. Due to high spillover signals from the hCB2R(D80N) expressing region not all provided atlas regions could be evaluated. Subsequently, the total tissue distribution (VT) was estimated by 2-tissue compartment modelling. For correction of the TACs, an averaged image-derived input function (pIDIF, plasma-to-whole blood ratio corrected), determined in biodistribution studies and the parent fraction derived from metabolism studies in Wistar rats (Watabe fit) and pIDIF (3-exponential fit) were integrated into the modelling process. The binding potential was estimated by a simplified reference tissue modelling (SRTM) using the cerebellar region as reference. The parametric maps were generated with the PXMOD module.

CB2R [3] = biological target: T1, CB2R (Mus musculus, UniProt P47936); experiment: Quantitative autoradiography, mouse spleen cryosections; assay type: binding
T1 construct: from tissue; host or cells: mouse spleen cryosections
Procedure: as §1, with “Germany). The analyses of the autoradiographic images were performed with the AIDA 5.1 software (Elysia-Raytest, Angleur, Belgium) resulting in a resolution of 12.617 pixel × 12.616 pixel per µm^2 (1 voxel = 1592 µm^3 ≙ 1.59 10^–3 µg wet tissue) and inhibition curves were created with GraphPad Prism 9.5.1 (GraphPad Inc., La Jolla, CA).” for “Germany).”

T1 sequence (P47936 whole entry): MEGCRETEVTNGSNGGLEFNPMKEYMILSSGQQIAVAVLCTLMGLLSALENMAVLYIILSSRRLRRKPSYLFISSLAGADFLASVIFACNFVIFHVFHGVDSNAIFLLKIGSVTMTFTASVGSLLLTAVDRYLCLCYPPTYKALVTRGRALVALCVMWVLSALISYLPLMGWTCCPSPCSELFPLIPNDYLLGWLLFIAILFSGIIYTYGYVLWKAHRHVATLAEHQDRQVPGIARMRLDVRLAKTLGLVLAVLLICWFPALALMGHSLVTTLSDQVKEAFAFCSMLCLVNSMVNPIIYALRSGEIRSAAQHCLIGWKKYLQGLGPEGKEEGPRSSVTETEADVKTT
Chain of hCB2R(D80N) (P34972 whole entry D80N): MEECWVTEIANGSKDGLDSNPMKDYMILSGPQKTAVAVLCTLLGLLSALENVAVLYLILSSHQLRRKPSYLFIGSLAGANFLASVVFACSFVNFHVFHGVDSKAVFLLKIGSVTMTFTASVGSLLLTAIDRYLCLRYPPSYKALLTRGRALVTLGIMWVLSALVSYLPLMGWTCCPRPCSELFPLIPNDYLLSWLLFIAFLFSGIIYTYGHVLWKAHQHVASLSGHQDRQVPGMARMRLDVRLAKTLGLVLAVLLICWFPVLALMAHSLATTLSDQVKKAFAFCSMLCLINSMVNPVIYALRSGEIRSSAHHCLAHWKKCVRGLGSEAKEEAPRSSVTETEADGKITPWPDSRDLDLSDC

Q: Which results are given for `[2H]C([2H])([18F])C([2H])([2H])C([2H])([2H])C([2H])([2H])n1c(C)c(C)s/c1=N\C(=O)C1C(C)(C)C1(C)C` [[^18F]JHU94620-d8]?
A: specific binding to CB2R (CB2R [1]): 22 ± 11%; free plasma fraction (fp) [2]: 0.3 ± 0.1; TAC peak value, Cerebellum (hCB2R(D80N)): 2.8 ± 0.2 SUVmean; TAC peak value, Contralateral (hCB2R(D80N)): 3.3 ± 0.5 SUVmean; Time-to-peak, Cerebellum (hCB2R(D80N)): 2.5 min; Time-to-peak, Contralateral (hCB2R(D80N)): 3.5 min; Time-to-peak, hCB2R(D80N) (hCB2R(D80N)): 10 min; VT of hCB2R(D80N) region, times higher than other investigated brain regions (hCB2R(D80N)): up to 23 times; SUVr60min hCB2R(D80N)-to-Cerebellum (hCB2R(D80N); 60 min): 47 ± 4; SUVr60min hCB2R(D80N)-to-Contralateral (hCB2R(D80N); 60 min): 10 ± 4; Kd (CB2R [3]): 1.98 nM; specific binding to CB2R (CB2R [3]; mouse spleen cryosections, blocking with 10 µM GW405833 or self-blocking): 40 ± 18%; Bmax (CB2R [3]; spleen of mice): 0.08 pmol mg^−1 protein
